Data set [1] has as its system α-DNP antibody / ASGPR on hepatocytes. Kind of data set: Ternary complex formation between hepatocytes and α-DNP antibody. The format is cell-based.
Data set [2] deals with α-DNP antibody. In words: Endocytosis of α-DNP antibody in hepatocytes. Type of data set: cell-based. The settings on record: FIG. 6C; 12 hour time point.
The test system of data set [3] is α-DNP antibody. In words: Colocalization microscopy studies (Alexa 488 signal, EEA1/LAMP2). The conditions noted are these: FIG. 7A. The format is cell-based. As for the experimental part: Cells were grown in 8-well microscope cell culture containers (Thermo, 177402) treated with polylysine (Fisher Scientific, 343810001). For all experiments, D-MoDE-A was used at a final concentration of 40 nM, and antibody was used at a final concentration of 100 nM. At 12 hours, cell culture media was removed and cells were washed with PBS once before fixation with 3.5% formaldehyde PBS solution for 13 minutes. Cells were then washed with PBS, and permeabilized for 5 minutes with 0.5% triton X-100 in PBS. Cells were blocked with 0.2% tween in TBS (Tween 20, AmericanBio, Ref AB02038-00500) and 3% BSA (Sigma, A9418) for one hour at room temperature. […] After incubation for 1 hour in a humidified chamber protected from light, cells were washed 3× with PBST for 5 minutes each. Cells were then treated with Alexa Fluor 568-labeled secondary antibody (Abcam, ab175473) at 1:500 dilution. Cells were washed 3× with PBST for 5 minutes each, then treated with PBS containing Hoechst stain (final concentration 1 μg/mL), incubated at room temperature for at least 10 minutes, and imaged. Cells were visualized using a Zeiss Axio Observer Z1 inverted microscope using 63× magnification under oil. Image analysis was performed on ZEN2 (blue edition) version 2.0.0.0.

Data set [4] relates to α-DNP antibody. Kind of data set: In vivo serum levels of α-DNP antibody in mice (ELISA). The conditions noted are these: FIG. 8D, single variable dose. How it is done:
In vivo experiments were performed under Yale University IACUC supervision following protocol entitled “pre-clinical evaluation of small molecule immunomodulators” (Protocol number 2017-11445). Experiments were performed in male nude mice purchased from Jackson Laboratory (NU/J, Stock No. 002019). Compounds were administered i.p. in a volume of 100 μL PBS. Approximately 25 μL of blood was collected at each time point by saphenous bleed. Antibody was administered as 40 μg in 100 μL i.p. Compounds were administered daily at the specified dose throughout the course of experiments. For data analysis, antibody levels were normalized to the recorded concentration of antibody observed in each mouse 24 hours after the i.p. administration.
ELISA analysis of serum samples was performed using MaxiSorp 96 well plates (Thermo, 44-2404-21). Plates were coated with 50 μL of BSA-DNP (Invitrogen, A23018) at 100 ug/mL in PBS and incubated at 4° C. overnight. Coating solution was then removed, and the plates were blocked with 2% BSA in PBS for 2 hours at room temperature, followed by washing twice with PBST (0.2% Tween). Serum samples were diluted in 2% BSA in PBS. […] The plates were then treated with TMB (Thermo 34028) followed by 2 M H2SO4 and analyzed for OD at 450 nm on a plate reader (BioTek Synergy 2). Sample concentrations were determined against a standard curve.
(In general: In an ELISA, binding on a coated surface is turned into a signal by an enzyme label.)

SMILES strings stand for the structures.

For the compound `CC(=O)N[C@H]1[C@H](OCCOCCOCCNC(=O)CCOCC(COCCC(=O)NCCOCCOCCO[C@@H]2O[C@H](CO)[C@H](O)[C@H](O)[C@H]2NC(C)=O)(COCCC(=O)NCCOCCOCCO[C@@H]2O[C@H](CO)[C@H](O)[C@H](O)[C@H]2NC(C)=O)NC(=O)CNC(=O)COCCOCCOCCNc2ccc([N+](=O)[O-])cc2[N+](=O)[O-])O[C@H](CO)[C@H](O)[C@@H]1O` [D-MoDE-A], the “formation of a ternary complex between hepatocytes and α-DNP antibody” value in data set [1] (FIG. 6A) is listed as “dependent on the concentration of D-MoDE-A”. Also, the “ternary complex formation in presence of competitive binders of ASGPR or α-DNP antibody” value in data set [1] (FIG. 6B) is on record as “inhibited by competitive binders of either ASGPR or α-DNP antibody”. The “endocytosis of α-DNP antibody in hepatocytes” value in data set [2] was “dependent on both α-DNP antibody and DMoDE-A concentration”. In addition, in data set [3], the “Alexa 488 signal in colocalization studies” value was “dependent on the presence of α-DNP antibody and D-MoDE-A”. The “serum levels of α-DNP antibody” value in data set [4] is recorded as “decrease in serum levels of α-DNP antibody”.

Values taken from patent US12128105B2, “Molecular degraders of extracellular proteins” (priority 2021, dated 2024).
